pIC50: −log10 of the molar value.
Each compound was assayed on S. typhi GFP reporter counter-screen, fluorescence, 4 h (assay: inhibitors in S. typhi counter-screen strain, dose response, counter-screen for PhoP regulon inhibitor project, fluorescence, 4 h (AID 2384)).
Compound `Oc1c(C(Nc2ccccn2)c2cccnc2)cc(Cl)c2cccnc12` (centres undefined) has a pIC50 of 4.59. Work on `CCCCn1c(NS(=O)(=O)c2ccc(C)cc2)c(S(=O)(=O)c2ccccc2)c2nc3ccccc3nc21` yielded a pIC50 of 5.01. Work on `O=C(Nc1nnc(-c2cccs2)o1)c1cccc(Oc2ccccc2)c1` yielded a pIC50 of 4.22. `CCOC(=O)N1CCN(Cc2cc(Cl)c3cccnc3c2O)CC1` gave a pIC50 of 4.32. `O=[N+]([O-])c1cccc(NNS(=O)(=O)c2ccccc2F)c1` showed a pIC50 of 4.73. Work on `CCCCCCCCNc1ncnc2ccccc12` yielded a pIC50 of 4.48. Compound `O=C(NCCCN1CCOCC1)c1sc2cc(Cl)ccc2c1Cl` has a pIC50 of 4.09. In the case of `O=C(C[n+]1cccc(CNC(=O)c2ccc(OC(F)F)cc2)c1)Nc1ccc(SC(F)F)cc1`, the pIC50 was 4.10. Compound `COc1cccc2c(=O)c(C(=O)O)c[nH]c12` has a pIC50 of 3.95. Compound `O=C(NC(=S)NNC(=O)c1ccccc1O)c1ccco1` has a pIC50 of 4.59. `CN1/C(=C\C=C\C2=[N+](C)c3ccc4ccccc4c3C2(C)C)C(C)(C)c2ccccc21` was tested, and the pIC50 was 5.05. With `Fc1ccc(Nc2nc(NCc3ccco3)c3ccccc3n2)cc1` the pIC50 was 4.68. With `Clc1cccc(/C=N\Nc2nccs2)c1` the pIC50 was 4.80. `COc1ccc(CNCCc2ccc(Cl)cc2)cc1OCc1ccccc1` was tested, and the pIC50 was 4.16. Work on `N=C(N)c1ccc(/C=C/c2ccc(C(=N)N)cc2O)cc1` yielded a pIC50 of 4.98. `Cc1ccc(Cn2c(=N)n(CC(O)COc3ccccc3)c3ccccc32)cc1` (centres undefined) was tested, and the pIC50 was 4.42. `CN(C)CCNC(=O)/C(=C/c1ccc(-c2ccc(Cl)cc2)o1)NC(=O)c1ccccc1` was tested, and the pIC50 was 4.20. `Cc1cc(N/N=C/c2ccc(O)cc2)c2cccc(C)c2n1` showed a pIC50 of 4.32. `C#CCOCCOCCOCCNc1nc(N2CCN(C(=O)CCCCCCCCCCNC(=O)[C@H](CO)n3cc(CCCCCN)nn3)CC2)nc(N2CCN(C(=O)CCCCCCCCCCNC(=O)[C@H](CCCN=C(N)N)n3cc(C[C@@H](C)CC)nn3)CC2)n1` was tested, and the pIC50 was 4.71. `Cc1cc(/C=C\c2ccc3cc(N(C)C)ccc3[n+]2C)c(C)n1-c1ccccc1` showed a pIC50 of 4.66. `Cc1cc(N=Nc2ccc(C)c(N=Nc3cc(C)c(N)cc3N)c2)c(N)cc1N` gave a pIC50 of 4.24. With `c1ccc2c(NCCc3c[nH]c4ccccc34)c3ccccc3nc2c1` the pIC50 was 4.43. `O=C(N/N=C/c1ccc([N+](=O)[O-])o1)c1ccc(O)cc1` showed a pIC50 of 4.42. With `OC1CNCc2cc3c(cc21)OCCO3` (centres undefined) the pIC50 was 4.21. `O=C(/C=C/c1ccccc1)NC(=S)NNC(=O)c1cnccn1` gave a pIC50 of 4.68. `Clc1c(OCCCn2ccnc2)ccc2ccccc12` showed a pIC50 of 4.12. For `Cc1ccccc1C(=O)Nc1cccc(C(=O)N/N=C/c2cc(Cl)cc([N+](=O)[O-])c2O)c1`, the pIC50 was 4.48. `CN1CCN(C(c2cccc(Cl)c2)c2ccccc2Cl)CC1` (centres undefined) showed a pIC50 of 4.17. With `O=C(NC1CCCC1)c1ccc(Br)s1` the pIC50 was 4.31. In the case of `CCOC(=O)N1CCN(C(=O)c2cn(CC)c3cc(N4CCN(C)CC4)c(F)cc3c2=O)CC1`, the pIC50 was 4.69. Work on `CCn1cc(C(=O)NCCN(C)C)c(=O)c2cc(F)c(N3CCN(C)CC3)cc21` yielded a pIC50 of 4.28. In the case of `CCC(O)(CC)C(=O)N/N=C/c1cc(Br)cc(Br)c1O`, the pIC50 was 4.15. Compound `O=C(NC(=S)NNC(=O)c1cccs1)c1ccco1` has a pIC50 of 4.28. In the case of `CSc1nc2ccc(Cl)cc2[nH]1`, the pIC50 was 4.13. In the case of `CCCCCc1ccc(OCCCC[n+]2ccccc2)c(CCCCC)c1`, the pIC50 was 4.44. In the case of `CC(/C=N/Nc1nc2ccccc2[nH]1)=C\c1ccccc1`, the pIC50 was 4.11. Work on `c1ccc(-c2nc3ccccc3[nH]2)cc1` yielded a pIC50 of 4.03. `Cc1cc(NC(=O)c2ccccc2)sc1C` showed a pIC50 of 4.10. With `CCOc1cc(Br)cc(/C=N/NC(=O)c2cccnc2)c1O` the pIC50 was 3.90. Work on `O=C(N/N=C/c1ccccc1O)C1SCCCS1` yielded a pIC50 of 4.14. `O=c1[nH]cc(F)c(=O)[nH]1` showed a pIC50 of 5.60. Work on `Oc1c(Br)cc(Br)cc1C=NCc1ccc(F)cc1` yielded a pIC50 of 4.34. For `CNC(CC(=O)c1ccc([N+](=O)[O-])cc1)C(Cl)(Cl)Cl` (centres undefined), the pIC50 was 4.08. Work on `CCCN1CCC(NCc2cn(C)nc2-c2ccc(Oc3ccccc3)cc2)CC1` yielded a pIC50 of 4.07. Compound `Cn1c(CN2CCCC2)nc2cc(NC(=O)COc3ccc(Cl)cc3)ccc21` has a pIC50 of 3.89. In the case of `O=C(CCN1CCN(c2ccccc2F)CC1)c1ccc(Br)cc1`, the pIC50 was 4.43. In the case of `CCCCc1ccc(N/C(N)=N/c2nc(C)cc(C)n2)cc1`, the pIC50 was 4.28. `CCn1cc(C(=O)O)c(=O)c2cc(F)c(N3CCN(S(=O)(=O)c4ccc(NC(C)=O)cc4)CC3)cc21` showed a pIC50 of 3.88. `NC(=O)SCC(=O)Nc1ccc(Cl)cc1` was tested, and the pIC50 was 4.33. With `O=C(O)c1sccc1Oc1ccc(F)cc1[N+](=O)[O-]` the pIC50 was 4.88. `O=C(Cc1cccs1)N/N=C\c1ccc([N+](=O)[O-])s1` showed a pIC50 of 4.29. `COc1ccc2[nH]c3c(C)c4ccncc4c(C)c3c2c1` was tested, and the pIC50 was 4.67. For `CC(C)(C)c1ccc(OCCCCCCN2CCNCC2)cc1`, the pIC50 was 4.31. In the case of `CSc1cccc(NC(=O)/C=C/c2ccccc2)c1`, the pIC50 was 4.14. With `Nc1cccc2nc3ccccc3cc12` the pIC50 was 4.16. Work on `COc1cc([N+](=O)[O-])cc(/C=N/NC(=O)CSc2ccccn2)c1O` yielded a pIC50 of 4.03. Compound `Fc1ccc(Nc2ccnc(Nc3ccc(F)cc3)n2)cc1` has a pIC50 of 4.61. `CCn1nnc(NC(=O)c2ccc([N+](=O)[O-])o2)n1` gave a pIC50 of 4.10. For `C#CCOCCOCCOCCNc1nc(N2CCN(C(=O)CCCCCCCCCCNC(=O)[C@H](CCCCN)n3cc(C)nn3)CC2)nc(N2CCN(C(=O)CCCCCCCCCCNC(=O)[C@H](CO)n3cc(CCCSC)nn3)CC2)n1`, the pIC50 was 3.89. `O=C(Oc1c(Cl)cc(Cl)c2cccnc12)c1cccc([N+](=O)[O-])c1` gave a pIC50 of 5.03. `COc1c(N2CCNC(C)C2)c(F)cc2c(=O)c(C(=O)O)cn(C3CC3)c12` (centres undefined) gave a pIC50 of 5.96. `CCCCOc1ccc(NC2=NC3(CCCC3)N=C(N)N2)cc1` gave a pIC50 of 4.02. `Fc1ccccc1CCNCc1ccccc1` was tested, and the pIC50 was 4.46. For `C#CCOCCOCCOCCNc1nc(N2CCN(C(=O)[C@H](CCCCN)n3cc([C@@H](N)CO)nn3)CC2)nc(N2CCN(C(=O)[C@H](Cc3cc4ccccc4[nH]3)n3cc([C@@H](N)Cc4ccc(O)cc4)nn3)CC2)n1`, the pIC50 was 4.03. `CCCCCNc1nc(N2CCCC2)c2c(c1C#N)CCN(C)C2` showed a pIC50 of 4.44. With `CCCNC1=C(C)C(=O)C2=C(C1=O)C(COC(N)=O)[C@]1(OC)C3NC3CN21` (some centres undefined) the pIC50 was 4.67. In the case of `CCCCCCCCCCOC(=O)Cn1c(COc2ccc(Cl)cc2)[n+](C)c2ccccc21`, the pIC50 was 5.00. `Cc1ccccc1Nc1cc(C)c2c(O)cccc2n1` gave a pIC50 of 4.66. Work on `Oc1ccc(Cl)cc1Cc1cc(Cl)ccc1O` yielded a pIC50 of 4.56. For `CCCCC(=O)NC(=S)NNC(=O)CC`, the pIC50 was 4.21. Compound `CN1CCN(CC(=O)N2CCn3c4c(c5cc(C6CCCCC6)ccc53)CCCC42)CC1` (centres undefined) has a pIC50 of 4.43. `CN1CCN(c2cc3c(cc2F)c(=O)c(C(=O)O)cn3CCF)CC1` gave a pIC50 of 5.97. Work on `CCCCCCCSc1cc(OC)c(CCN(C)C)cc1OC` yielded a pIC50 of 4.51. In the case of `CCn1cc(C(=O)O)c(=O)c2cc(F)c(N3CCN(C(=S)NC(=O)c4cccc(F)c4)CC3)cc21`, the pIC50 was 4.02. `O=C(O)c1cn(C2CC2)c2cc(N3CCN(S(=O)(=O)c4ccc5c(c4)OCCO5)CC3)c(F)cc2c1=O` gave a pIC50 of 4.80. In the case of `CCSc1ccc2c(c1)N(CCCN1CCN(C)CC1)c1ccccc1S2`, the pIC50 was 4.15. `CC(C)(C)c1ccc(NC(=O)COC(=O)c2ccc([N+](=O)[O-])s2)cc1` showed a pIC50 of 4.82. For `O=C(NC(=S)NNC(=O)c1ccco1)c1ccc(Br)cc1`, the pIC50 was 4.12. Compound `Nc1nonc1-n1nnc(C(=O)N/N=C/c2cc(Br)ccc2O)c1CSC1=NCCS1` has a pIC50 of 4.62. With `Cc1cc([N+](=O)[O-])cc(/C=N/n2c(C)nc3ccccc3c2=O)c1O` the pIC50 was 4.11. `Cc1ccc(OCc2nnc(NC(=O)c3cccnc3)s2)cc1` gave a pIC50 of 4.28. With `Cc1ccc(Nc2cc(C)c3c(O)cccc3n2)cc1C` the pIC50 was 4.93. Work on `N#C/C(N=Nc1ccccc1O)=N\Nc1ccccc1O` yielded a pIC50 of 4.69. For `OCCCNc1c2ccccc2nc2ccccc12`, the pIC50 was 3.96. `Cc1ccc(C(=O)O)cc1N=Cc1cc(Br)cc(Br)c1O` gave a pIC50 of 4.78. `Oc1cc(Cl)ccc1Oc1ccc(Cl)cc1Cl` was tested, and the pIC50 was > 6.26. `OC(c1cc(C(F)(F)F)nc2c(C(F)(F)F)cccc12)C1CCCCN1` (centres undefined) gave a pIC50 of 4.72. Compound `O=C(CCN1CCN(c2ccccc2)CC1)c1ccc(Cl)cc1` has a pIC50 of 4.15. With `Clc1ccc(/C=C/c2ncc[nH]2)c(Cl)c1` the pIC50 was 4.49. `O=C(Cc1ccccc1)N/N=C/c1cc(Br)cc(Cl)c1O` gave a pIC50 of 4.58. Work on `CCCCCc1ccc(OCCC[n+]2ccccc2)c(CCCCC)c1` yielded a pIC50 of 4.48. `Cc1ccc(Nc2c3c(nc4ccccc24)CCC3)cc1` showed a pIC50 of 4.59. `Oc1c(Br)cc(Br)cc1C=Nc1cccc2ncccc12` was tested, and the pIC50 was 4.66. For `NC1CCN(c2c(F)cc3c(=O)c(C(=O)O)cn(C4CC4)c3c2Cl)C1` (centres undefined), the pIC50 was > 6.26. Work on `N/C(=N\OS(=O)(=O)c1ccccc1)c1cccnc1` yielded a pIC50 of 4.91. Compound `CCOC(=O)c1c(N)sc(C(=O)Nc2ccc3c(c2)OCO3)c1C` has a pIC50 of 3.88. With `CCCCN(CCCC)C(=O)c1cn(CC)c2cc(N3CCN(C)CC3)c(F)cc2c1=O` the pIC50 was 4.80. `Cc1ccc(C(=O)N/C(=C\c2ccc(-c3ccc(Cl)cc3)o2)C(=O)NCCCN(C)C)cc1` was tested, and the pIC50 was 4.44. With `CS(=O)(=O)c1ccc([C@@H](O)[C@@H](CO)NC(=O)C(Cl)Cl)cc1` the pIC50 was 4.74. `CN1CCCN(C(c2ccccc2)c2ccc(Cl)cc2)CC1` (centres undefined) was tested, and the pIC50 was 4.42. For `O=C(CN1C2=NCCCN2c2ccccc21)c1ccc2c(c1)OCO2`, the pIC50 was 3.90. For `CCOC(=O)N/N=C\c1ccc([N+](=O)[O-])o1`, the pIC50 was 4.51. `CN(C)CC/C=C1/c2ccccc2Sc2ccc(Cl)cc21` was tested, and the pIC50 was 4.52. In the case of `CCOC(=O)c1ccccc1-n1c(C)cc(C2N=C(N)Nc3nc4ccccc4n32)c1C` (centres undefined), the pIC50 was 4.40. Compound `CC(C(=O)NC1C=CS(=O)(=O)C1)N1C(=O)/C(=C/c2cccc(Cl)c2)SC1=S` (centres undefined) has a pIC50 of 4.23. `C#CCOCCOCCOCCNc1nc(N2CCN(C(=O)[C@H]([C@@H](C)CC)n3cc([C@@H](N)CO)nn3)CC2)nc(N2CCN(C(=O)[C@H](Cc3cc4ccccc4[nH]3)n3cc([C@@H](N)Cc4ccc(O)cc4)nn3)CC2)n1` showed a pIC50 of 4.30. `Cc1ccc(NC2=NCCCS2)cc1Cl` gave a pIC50 of 3.90. `N=c1c2c(n(Cc3ccc(Cl)cc3)c3c1CCC3)CCC2` showed a pIC50 of 4.10. Work on `Fc1cccc(Nc2c3c(nc4ccccc24)CCC3)c1` yielded a pIC50 of 4.12. With `CCCCCCCCCCC[N+](C)(C)CC/C=C1/c2ccccc2Sc2ccc(Cl)cc21` the pIC50 was 4.27. In the case of `Cc1ccc(Nc2nc(N)c3ccccc3n2)cc1Cl`, the pIC50 was 4.44. `CCc1ccc(NC(=O)C[n+]2cc(-c3ccc(C)cc3)n3c2CCC3)cc1` was tested, and the pIC50 was 4.43. Work on `CN(C)CCNC(=O)c1ccc(COc2ccc(Cl)cc2Cl)cc1` yielded a pIC50 of 4.12. With `O=C(Nc1ccc2nc(-c3ccc(Br)o3)[nH]c2c1)c1cccs1` the pIC50 was 4.82.

— PubChem BioAssay AID2384 (Southern Research Specialized Biocontainment Screening …, 2010)
